Experiments:
Format in all cases: cell-based
[1] = system: E. coli bacterial cells induced to produce β-galactosidase; experiment: β-galactosidase release colour change assay (X-gal), induced bacteria in welled plate; details: then X-gal 15 minutes at 37° C.
Procedure: (§1) Non-induced E. coli cells were deposited in wells F1-F3 (control). The cells were treated as follows: Group 1, 10% SDS was added to wells A1-A3, B1-B3, and C1-C3; Group 2, 100 μM LL-37 was added to D1-D3; Group 3, untreated induced bacterial cells in wells E1-E3 (control); Group 4, 100 μM LL-37 added to wells F1-F3. Samples were incubated for 15 minutes post-treatment, and 20 μL of 20 mg/mL X-gal substrate was added to each well and allowed to incubate for 15 minutes at 37° C.
A plate was designed as set forth in FIG. 6a: Group 5, induced bacterial cells treated with 100 uM LL-37 (wells A1-A3, B1-B3, C1-C3); Group 6, induced bacterial cells treated with 10% PBS (wells D1-D3), Group 7, non-induced bacteria treated with a lytic agent (wells E1-E3); Group 8, non-induced bacteria untreated (wells F1-F3); Group 9, induced bacteria treated with a lytic agent (wells G1-G3); and Group 10, untreated induced bacteria.
Samples were incubated for 15 minutes post-treatment, and 20 uL of 20 mg/mL X-gal substrate was added to each well and allowed to incubate for 15 minutes at 37° C.
A plate was designed as set forth in FIG. 7a: Group 11, induced bacteria were treated with 100 uM LL-37 (wells A1-A3, B1-B3, and C1-C3); Group 12, induced bacteria that were untreated (wells D1-D3). […]

[2] = system: induced bacteria, lyophilized; experiment: Bacterial Assay IV: lyophilized and rehydrated induced bacteria, X-gal colour change in tubes; details: 100 uM LL-37, rehydrated after 72 hours, X-gal 15 minutes at 37° C.
Procedure: Aliquots of induced bacteria were prepared with 1 mL of the sample dispensed into three Eppendorf tubes. Samples were then lyophilized. After 72 hours to ensure stability, tubes were rehydrated with 1 mL of RPMI 1640 (+) Glucose culture medium and treated. 50 uL of 20 mg/mL X-gal substrate was added to each tube and allowed to incubate for 15 minutes at 37° C.

[3] = system: Non-induced E. coli cells; experiment: β-galactosidase release colour change assay (X-gal), non-induced control cells; details: 100 μM LL-37; non-induced cells (Group 4); 15 minutes, then X-gal 15 minutes at 37° C.
Procedure: as §1

lacZ transfected E. coli = experiment: Bacterial Assay: 1:2 dilution series of LL-37 on IPTG-induced lacZ transfected E. coli, X-gal colour change; details: 15 minutes room temperature, X-gal 15 minutes 37° C.
Procedure: E. coli cells transfected with the lacZ gene that encodes the protein β-galactosidase were obtained. The cells were plated to produce isolate colonies that were then selected.
An isolate colony of lacZ transfected E. coli from the plate of Example 2 was looped and inoculated into 10 mL of RPMI 1640 medium+glucose (available from ThermoFisher Scientific, Waltham, Mass.) and incubated at 37° C. for 24 hours.
The liquid bacterial culture from Example 3 was removed from incubation and centrifuged at 1200 RPM for 7 minutes. The supernatant was removed, and the bacterial pellet was resuspended in 1 mL of RPMI 1640 (−glucose) liquid tissue culture medium as Sample A. A 15 mL centrifuge tube was filled with induction media (8.9 mL RPMI 1640 (−glucose), 100 μL induced IPTG. 1 mL of the resuspended bacterial culture from Sample A was added to the new tube as Sample B, for a final volume of 10 mL. Sample B was incubated at 37° C. for 60 minutes.
After incubation, 100 μL of Sample B was transferred to each of wells A1-A12 and B1-B12. 10 μL of a 2000 μM LL-37 stock solution was then added to well A1, and a 1:2 dilution was conducted across wells A2-A11. The dilution was repeated for wells B1-B11. No LL-37 solution was added to wells A12 and B12 (controls). The plate was incubated for 15 minutes at room temperature. […]

Compound | colorimetric result (color change pink to blue, release of β-galactosidase) ([1]; 10% SDS, 15 minutes post-treatment) | tube color change pink to blue (release of β-galactosidase) [2] | colorimetric result (color change pink to blue) [3] | visual color change, higher concentrations of dilution series (lacZ transfected E. coli; wells A1-A5 and B1-B5, 10 μL of 2000 μM stock in well 1, then 1:2 dilution) | visual color change, lower concentrations of dilution series (lacZ transfected E. coli; wells A6-A11 and B6-B11 of the 1:2 dilution series) | colorimetric result (color change pink to blue, release of β-galactosidase) ([1]; 100 μM LL-37, 15 minutes post-treatment)
CCCCCCCCCCCCOS(=O)(=O)[O-].[Na+] [SDS] | mild color change |  |  |  |  | 
LL-37: anti-microbial alpha-helical 37 amino acid peptide released from human cathelicidin; membrane lytic peptide, human or synthetic |  | converted the tube color from pink to blue | remained pink | appeared blue | remained pink | completely converted the well color from pink to blue
